Like-named read-outs stand apart in the source and are kept apart here.

The target in data set [1] is T1, malonyl-CoA decarboxylase prepared from rat heart (Rattus norvegicus, UniProt Q920F5).
T1 construct: from tissue; host or cells: rat heart
T1 sequence (Q920F5 39-492): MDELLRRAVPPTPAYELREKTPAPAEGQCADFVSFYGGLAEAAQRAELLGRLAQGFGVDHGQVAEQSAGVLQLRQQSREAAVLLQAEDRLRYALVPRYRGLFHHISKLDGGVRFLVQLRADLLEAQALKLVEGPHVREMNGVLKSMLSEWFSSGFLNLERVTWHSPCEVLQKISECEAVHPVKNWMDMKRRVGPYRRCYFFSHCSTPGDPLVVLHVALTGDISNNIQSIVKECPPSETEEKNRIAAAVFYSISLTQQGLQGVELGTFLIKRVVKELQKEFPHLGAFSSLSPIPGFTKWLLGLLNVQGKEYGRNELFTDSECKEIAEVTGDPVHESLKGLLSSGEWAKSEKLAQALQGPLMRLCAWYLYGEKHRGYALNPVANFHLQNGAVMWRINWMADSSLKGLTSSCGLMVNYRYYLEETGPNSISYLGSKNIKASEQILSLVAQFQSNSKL
As to the kind of experiment: In vitro MCD inhibitory assay (spectrophotometric, 96 well). Format: biochemical. As for the experimental part:
The following reagents are added into a 96 well titer plate: Tris-HCl buffer, 20 μL, DTE, 10 μL; I-malate, 20 μL; NAD, 10 μL; NADH, 25 μL; water, 80 μL; malic dehydrogenase, 5 μL. The contents are mixed and incubated for 2 min followed by the addition of 5 μL of citrate synthase.

For data set [2], the target named is T2, carnitine palmitoyltransferase-I (CPT-I) muscle (M) isoform (Homo sapiens, UniProt Q92523).
T2 sequence (Q92523 1-772): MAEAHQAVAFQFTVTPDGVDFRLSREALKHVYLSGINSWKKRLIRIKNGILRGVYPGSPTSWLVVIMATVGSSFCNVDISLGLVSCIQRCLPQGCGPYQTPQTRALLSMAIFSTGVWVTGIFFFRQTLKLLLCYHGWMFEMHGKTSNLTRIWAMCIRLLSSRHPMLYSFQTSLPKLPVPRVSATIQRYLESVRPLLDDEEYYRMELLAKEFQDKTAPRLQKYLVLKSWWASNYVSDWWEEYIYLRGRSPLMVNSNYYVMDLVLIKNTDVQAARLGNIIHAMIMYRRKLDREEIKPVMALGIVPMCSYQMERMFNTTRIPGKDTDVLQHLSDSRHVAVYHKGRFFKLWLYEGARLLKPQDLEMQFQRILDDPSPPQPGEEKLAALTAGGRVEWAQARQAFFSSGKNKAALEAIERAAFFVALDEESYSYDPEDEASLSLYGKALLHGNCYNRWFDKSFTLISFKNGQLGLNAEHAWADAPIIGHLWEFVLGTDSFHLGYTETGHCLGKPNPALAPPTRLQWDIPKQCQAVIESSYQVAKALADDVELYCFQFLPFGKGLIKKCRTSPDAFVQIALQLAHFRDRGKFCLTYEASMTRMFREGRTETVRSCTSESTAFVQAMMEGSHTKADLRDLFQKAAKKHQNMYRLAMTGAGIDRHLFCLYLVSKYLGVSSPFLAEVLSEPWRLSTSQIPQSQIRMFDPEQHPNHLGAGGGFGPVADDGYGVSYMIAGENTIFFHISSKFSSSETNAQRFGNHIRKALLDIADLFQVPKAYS
The following applies: read-out: IC50 of malonyl-CoA inhibition of CPT-I; cited from earlier work.

For the next data set, the system named is breast carcinoma cells. The conditions noted are these: Pizer et al.; cited from earlier work.
The mark [3] stands for this setting: MCD from rat heart, concentration causing 50% inhibition of MCD activity, read-out: IC50 of the MCD inhibitors.

For `OC(c1ccc(N(Cc2ccc(C(F)(F)F)cc2)C(=S)N2CCOCC2)cc1)(C(F)(F)F)C(F)(F)F` [Example 1, morpholine-4-carbothioic acid [4-(2,2,2-trifluoro-1-hydroxy-1-trifluoromethyl-ethyl)-phenyl]-(4-trifluoromethyl-benzyl)-amide], the IC50 (usually the concentration at which inhibition is half-maximal) in data set [1] (setting [3]) amounted to 123 nM.

For `N#CCCCCN(C(=S)N1CCOCC1)c1ccc(C(O)(C(F)(F)F)C(F)(F)F)cc1` [Example 2, N-(4-cyanobutyl)-N-{4-[2,2,2-trifluoro-1-hydroxy-1-(trifluoromethyl)ethyl]phenyl}morpholine-4-carbothioamide], in data set [1] (setting [3]), the IC50 was 42 nM.

As for `CCCCN(C(=N)N(CC)CC)c1ccc(C(O)(C(F)(F)F)C(F)(F)F)cc1.Cl` [Example 4, butyl {4-[2,2,2-trifluoro-1-hydroxy-1-(trifluoromethyl)ethyl]phenyl}amino)(diethylamino)methaniminium chloride], in data set [1] (setting [3]), the IC50 is 164 nM.

`CCCCN(C(=N)N(CC)CC)c1ccc(C(O)(C(F)(F)F)C(F)(F)F)cc1.Cl` [Example 4]: the melting point (in general, the temperature, or range, at which the solid turns liquid) was 217.1 to 219.2 °C (dec.).

For `COC(=O)CCCCN(C(=S)N1CCOCC1)c1ccc(C(O)(C(F)(F)F)C(F)(F)F)cc1` [Example 5-48], in data set [1] (setting [3]), the IC50 is 45 nM.

As for `CCCCN(C(=S)N(CC)CC)c1ccc(C(O)(C(F)(F)F)C(F)(F)F)cc1` [Example 5-108], the IC50 in data set [1] (setting [3]) was determined as 147 nM.

Take `CC(C)(C)OC(=O)CCNC(=O)C1CC(c2ccc(C(O)(C(F)(F)F)C(F)(F)F)cc2)=NO1` (stereo not drawn) [Example 12, 1,1-dimethylethyl N-[(3-{4-[2,2,2-trifluoro-1-hydroxy-1-(trifluoromethyl)ethyl]phenyl}-4,5-dihydroisoxazol-5-yl)carbonyl]-beta-alaninate]: the IC50 in data set [1] (setting [3]) worked out at 515 nM.

On to `CCCC(O)(CCC)c1ccc(C(O)(C(F)(F)F)C(F)(F)F)cc1` [Example 15], for which the 50% inhibitory concentration (IC50) in data set [1] (setting [3]) was determined as 127 nM.

For the compound `CCCCNC(=O)c1c(-c2ccccc2)nc(-c2ccc(C(O)(C(F)(F)F)C(F)(F)F)cc2)n1CCC` [Example 22, N-butyl-4-phenyl-1-propyl-2-{4-[2,2,2-trifluoro-1-hydroxy-1-(trifluoromethyl)ethyl]phenyl}-1H-imidazole-5-carboxamide], in data set [1] (setting [3]), the IC50 is 354 nM.

On to `CCCCNC(=O)c1c(-c2ccccc2)nc(-c2ccc(C(O)(C(F)(F)F)C(F)(F)F)cc2)n1C(C)C` [Example 23-11], for which the IC50 in data set [1] (setting [3]) amounted to 44 nM.

In data set [1], `CCOP(=O)(OCC)N(CC)c1ccc(C(O)(C(F)(F)F)C(F)(F)F)cc1` [Example 28, diethyl ethyl{4-[2,2,2-trifluoro-1-hydroxyl-1-(trifluoromethyl)ethyl]phenyl}amidophosphate] yielded an IC50 of 90 nM.

Regarding `CC(C)(COP(=O)(O)OP(=O)(O)OC[C@H]1O[C@@H](n2cnc3c(N)ncnc32)[C@H](O)[C@@H]1OP(=O)(O)O)[C@@H](O)C(=O)NCCC(=O)NCCSC(=O)CC(=O)O` [Malonyl-CoA], in data set [2], the IC50 is 30 nM.

Take `CCCCCCCCCCCCCCOc1ccc(C(=O)O)o1` [TOFA, 5-(tetradecyloxy)-2-furoic acid]: the malonyl-CoA level in the data set with breast carcinoma cells was 60 % of the control.

Source of the values: US7279477B2 (Chugai Seiyaku Kabushiki Kaisha, priority 2001, dated 2007).
